# Experimental data from PMC12562276, “Effects of Intramuscular Vasopressin on Pharmacokinetics and Pharmacodynamics in Healthy Neonatal Piglets: A Dose–Response Study” (Children, 2025).
# Where two headings read alike, the source gives them in different places.
# Tests used:
# [1] = system: isolated working rat heart; conditions: during normoxia (not during hypoxia); cited from earlier work
# Excerpt: Through its vasoconstrictor effects, vasopressin increases SVR, thereby increasing arterial blood pressure. […] In an anesthetized open-chest dog model, Nakano administered various doses of vasopressin and reported a dose-related relationship between increasing doses and r ...
# [2] = system: dogs; conditions: IV vasopressin, cited from earlier work
# Excerpt: In the current study, we determined the optimal IM vasopressin dose to be 8 IU/kg, as there were significant changes in hemodynamics and left ventricular contractile function following its administration, while there were little to no hemodynamic changes following 4 IU/kg IM vasopressin administration. […] Even if IV access can be achieved before two minutes, IV concentra ...
# [3] = Plasma vasopressin concentrations and pharmacokinetics after IV or IM vasopressin; format: in vivo, neonatal piglets; conditions: for level at 1 min / level at 5 min / level at 10 min / AUC(0-t): pig, plasma, n = 5/group, median (IQR); for level at 1 min: 1 min after administration; for level at 1 min / level at 5 min / level at 10 min: arterial blood, read-out: Plasma vasopressin concentration; for level at 5 min: 5 min after administration; for level at 10 min: 10 min after administration; for AUC(0-t): neonatal piglets, read-out: Area under the curve from baseline to 10 min (AUC0–10) (converted)
# Method: (§1) Following surgical instrumentation and stabilization, a consecutively numbered, sealed brown envelope containing the group allocation was opened (Figure 1). Piglets were randomized into three groups: 0.4 IU/kg IV vasopressin 4 IU/kg IM vasopressin, or 8 IU/kg IM vasopressin. Piglets that were randomized to “IM” were administered one dose intramuscularly in the left inner thigh muscle while piglets randomized to “IV” were administered one dose via the femoral venous catheter followed with a 3 mL normal saline bolus. Arterial blood was collected before drug administration (baseline = time point “0 min”), 1, 2, 3, 4, 5, and 10 min after drug administration. Following final collection of blood, piglets were euthanized with an intravenous overdose of sodium pentobarbital and autopsies of IM injection sites were conducted to assess local tissue damage […].
# Demographics of study piglets were recorded. Transonic flow probes, heart rate, and pressure transducer outputs, and Millar catheter were digitized and recorded with LabChart® 8.1.30, programming software (ADInstruments, Houston, TX, USA). Plasma vasopressin concentrations and pharmacokinetic parameters were quantified and analyzed as previously described. Reported plasma vasopressin concentrations only represent exogenous arginine vasopressin. Since pigs produce lysine vasopressin, endogenous vasopressin concentrations could not be quantified.
# The data are presented as mean (standard deviation—SD) for normally distributed continuous variables and median (interquartile range—IQR) when the distribution was skewed. The data was tested for normality (Shapiro–Wilk and Kolmogorov–Smirnov test) and compared using either Student’s t-test (data normally distributed), Rank Sum if data were skewed, one- and two-way ANOVA with Dunnett post-test, or Fisher’s exact test for categorical variables. Both Hedges’ g and Cliff’s delta (δ) were reported as standardized measures of effect size as appropriate for parametric and non-parametric data, respectively. Pearson or Spearman’s correlations were reported for parametric or non-parametric data, respectively. p-values are 2-sided and p < 0.05 was considered statistically significant. Statistical analyses were performed with SigmaPlot (Systat Software Inc., San Jose, CA, USA) and R version 4.3.2.
# [4] = system: healthy neonatal piglets; test: Autopsy of IM injection sites for local tissue damage; format: in vivo; conditions: autopsies post-euthanasia; IM 4 or 8 IU/kg, left inner thigh muscle
# Method: as §1
# [5] = system: healthy neonatal piglets; test: Hemodynamic and cardiac function parameters after IV or IM vasopressin; format: in vivo; conditions: for Changes in hemodynamic parameters: n = 5
# Method: Piglets were instrumented as previously described with modifications. Following induction of anesthesia using isoflurane, piglets underwent a tracheostomy for intubation. Pressure-controlled ventilation (Sechrist Infant Ventilator Model IV-100; Sechrist Industries, Anaheim, CA, USA) was commenced at a respiratory rate of 16–20 breaths/min and pressure of 20/5 cmH2O. Oxygen saturation was maintained within 90–100%, while glucose was provided via an IV infusion of 5% dextrose at 10 mL/kg/hr. IV propofol (5–10 mg/kg/h) and morphine (0.1 mg/kg/h) were provided to maintain anaesthesia, and additional IV doses of propofol (1–2 mg/kg) and morphine (0.05–0.1 mg/kg) were administered as needed (i.e., to maintain adequate sedation/pain medication as determined by movement/pain response). Piglets’ normothermic body temperature of 38.5–39.5 °C was maintained with a heating pad and overhead warmer.
# 5-French Argyle® (Klein-Baker Medical Inc. San Antonio, TX, USA) double-lumen and single-lumen catheters were inserted via the right femoral vein and artery, respectively. The femoral venous catheter was used for administration of fluids and medications and the arterial catheter for continuous arterial blood pressure monitoring in addition to arterial blood gas measurements. A real-time ultrasonic flow probe (2 mm; Transonic Systems Inc., Ithica, NY, USA) encircled the right common carotid artery to measure cerebral blood flow. A Millar® catheter (MPVS Ultra1, ADInstruments, Houston, TX, USA) was inserted into the left ventricle via the left common carotid artery for continuous measurement of stroke volume, ejection fraction, end-diastolic and -systolic volumes, left ventricular pressure, and left ventricular contractile function (dP/dtmax, dP/dtmin).
# Following surgical instrumentation, piglets were placed in the supine position and allowed to recover from surgical instrumentation until baseline hemodynamic measures were stable (minimum one hour). Ventilator rate was adjusted to maintain the partial arterial CO2 between 35–45 mmHg, as determined by periodic arterial blood gas analysis. A Hewlett Packard 78833B monitor (Hewlett Packard Co., Palo Alto, CA, USA) was used for the continuous measurement of heart rate, mean systemic arterial pressure (MAP), systemic systolic and diastolic arterial pressure, and percutaneous oxygen saturation throughout the experiment.
# Cerebral oxygenation (crSO2) was measured using the Invos^TM Cerebral/Somatic Oximeter Monitor (Invos 5100, Somanetics Corp., Troy, MI, USA), which calculates crSO2 and expresses values as the percentage of oxygenated haemoglobin (oxygenated haemoglobin/total haemoglobin). The sensors were placed on the right forehead of the piglet and secured with wrap and tape. A slim cap provided light shielding. Regional oxygen saturation values were recorded every second at a sample rate of […].
# as §1
# Demographics of study piglets were recorded. […]
# [6] = 0.4 IU/kg IV, anesthetized piglets
# [7] = 8 IU/kg IM, anesthetized piglets
structure (smiles),measurement,setting,value
"NC(=O)CC[C@@H]1NC(=O)[C@H](Cc2ccccc2)NC(=O)[C@H](Cc2ccc(O)cc2)NC(=O)[C@@H](N)CSSC[C@@H](C(=O)N2CCC[C@H]2C(=O)N[C@@H](CCCN=C(N)N)C(=O)NCC(N)=O)NC(=O)[C@H](CC(N)=O)NC1=O [vasopressin, arginine vasopressin]",dP/dtmax,[1],significantly decreased
same,Decrease in cardiac output,[2]; baroreceptor-denervated dogs,−22.8 (3.0) mL/kg min
same,Decrease in heart rate,[2]; baroreceptor-denervated dogs,−10 (5) beats/minute
same,Decrease in cardiac output,[2]; healthy dogs,−39.2 (3.8) mL/kg min
same,Decrease in heart rate,[2]; healthy dogs,−22 (4) beats/minute
same,Plasma concentrations compared with IV vasopressin,"[3]; 4 IU/kg IM vs 0.4 IU/kg IV, p < 0.001",significantly lower
same,Plasma concentrations compared with IV vasopressin,"[3]; 8 IU/kg IM, two minutes after administration",comparable to IV vasopressin
same,level at 1 min,[3]; [6],2.2 ng/mL
same,level at 5 min,[3]; [6],1.74 ng/mL
same,level at 10 min,[3]; [6],1.34 ng/mL
same,AUC(0-t),[3]; 0.4 IU/kg IV,0.266 ng·h/mL
same,AUC(0-t),[3]; 4 IU/kg IM,0.155 ng·h/mL
same,level at 1 min,"[3]; 8 IU/kg IM, anesthetized piglets 1–3 days old, exogenous arginine vasopressin only",0.39 ng/mL
same,level at 5 min,[3]; [7],2.64 ng/mL
same,level at 10 min,[3]; [7],2.83 ng/mL
same,AUC(0-t),[3]; 8 IU/kg IM,0.339 ng·h/mL
same,Local tissue damage at the IM injection sites,[4],did not reveal any significant local tissue damage
same,Brain oxygen saturation compared to baseline,[5]; 0.4 IU/kg IV,Significantly lower
same,dP/dtmin,[5]; 0.4 IU/kg IV,no significant changes
same,"Stroke volume, cardiac output and ejection fraction","[5]; 0.4 IU/kg IV, 1–3 min after administration",significantly lower
same,Stroke volume and cardiac output,"[5]; 0.4 IU/kg IV, one minute after administration",significantly lower
same,Carotid blood flow compared with 8 IU/kg IM,"[5]; 0.4 IU/kg IV, throughout the experimental period, p = 0.032",much lower
same,Changes in hemodynamic parameters,[5]; 4 IU/kg IM,failed to produce significant changes
same,dP/dtmax (left ventricular contractile function),[5]; 8 IU/kg IM,significantly reduced
same,dP/dtmin,[5]; 8 IU/kg IM,no significant changes
same,Changes in hemodynamic parameters,[5]; 8 IU/kg IM,induced significant hemodynamic changes
same,"MAP, systolic and diastolic pressure","[5]; 8 IU/kg IM, vs baseline",significant increases
